Results on 31 compounds are retold here after ChEMBL document CHEMBL1137495, “Synthesis and TNF expression inhibitory properties of new thalidomide analogues derived via Heck cross coupling” (2007).

Activity calls are given as the source filed them. The rule behind the calls is not given here.

For experiment [1], the system named is Jurkat. Description: Inhibition of TNF gene expression in FRT Jurkat TNF reporter cells at 100 uM. The conditions noted are these: Homo sapiens. It is filed as functional.
The test system of experiment [2] is Jurkat. The experiment can be described thus: Increase in inhibition of TNF gene expression in FRT Jurkat TNF reporter cells after 30 hrs. It is filed as functional, cell-based. The settings on record: Homo sapiens.
The subject of experiment [3] is Jurkat. The experiment can be described thus: Viability of the FRT Jurkat TNF reporter cells at 1 uM. It is filed as functional, Homo sapiens.
For experiment [4], the system named is Jurkat. Description: Inhibition of TNF gene expression in FRT Jurkat TNF reporter cells at 10 uM. It counts as functional. The conditions noted are these: Homo sapiens.
Experiment [5] deals with Jurkat. Description: Increase in cell death in human FRT Jurkat TNF reporter cell. It is filed as functional, cell-based.
The test system of experiment [6] is Jurkat. Description: Increase in Cytotoxicity in human FRT Jurkat TNF reporter cell at 100 uM. It counts as functional, cell-based.
Experiment [7] relates to Jurkat. Description: Inhibition of TNF gene expression in FRT-Jurkat TNF reporter cells at 1 uM. It is filed as functional. The settings on record: Homo sapiens.

Usually inhibition stands for the change of the read-out against control, counted positive when it falls. Read a low inhibition as a weak effect. In the experiment on Jurkat [1], `O=C1CCC(N2C(=O)c3ccc(Br)cc3C2=O)C(=O)N1` (centres undefined) yielded an inhibition at 100 µM of 35%. The same measure, in the same setting: with `O=C1C=C(c2cccc3c2C(=O)N(C2CCC(=O)NC2=O)C3=O)CCC1` (centres undefined) the figure was 38%; with `COC(=O)/C=C/c1ccccc1N1C(=O)c2ccccc2C1=O`, 48%; with `O=C1CCC(N2C(=O)c3ccc(/C=C/N4CCCC4=O)cc3C2=O)C(=O)N1` (centres undefined), 36%.

In the experiment with Jurkat [1], `O=C1CCC(N2C(=O)c3cccc(/C=C/N4CCCC4=O)c3C2=O)C(=O)N1` (centres undefined) returned an inhibition at 100 µM of 38%. On the same count and under the same terms, for `CCCCO/C=C/c1ccc(N2C(=O)c3ccccc3C2=O)cc1` the value was 48%. Regarding `CCCCOC(=O)/C=C/c1ccc(N2C(=O)c3ccccc3C2=O)cc1`, at 100 µM the inhibition with Jurkat [1] was 35%. Compound `O=C1CCC(N2C(=O)c3cccc(I)c3C2=O)C(=O)N1` (centres undefined) registered an inhibition at 100 µM in the experiment on Jurkat [1] of 37%.

Compound `CCCCO/C=C/c1ccccc1N1C(=O)c2ccccc2C1=O` returned an inhibition at 100 µM in the experiment on Jurkat [1] of 47%. On the same count and under the same terms, for `O=C1c2ccccc2C(=O)N1c1ccc(C2CC=CO2)cc1` (centres undefined) the value was 38%; for `O=C1C=C(c2cccc(N3C(=O)c4ccccc4C3=O)c2)CCC1`, 47%; for `CCCCO/C=C/c1cccc2c1C(=O)N(C1CCC(=O)NC1=O)C2=O` (centres undefined), 47%. The same measure, in the same setting: for `CCCCOC(=O)/C=C/c1cccc(N2C(=O)c3ccccc3C2=O)c1` the value was 35%; for `COC(=O)/C=C/c1ccc2c(c1)C(=O)N(C1CCC(=O)NC1=O)C2=O` (centres undefined), 39%.

On to `O=C1C=C(c2ccc3c(c2)C(=O)N(C2CCC(=O)NC2=O)C3=O)CCC1` (centres undefined), for which the inhibition at 100 µM in the experiment with Jurkat [1] was determined as 35%.

In the experiment on Jurkat [1], `CCCCO/C=C/c1ccc2c(c1)C(=O)N(C1CCC(=O)NC1=O)C2=O` (centres undefined) had an inhibition at 100 µM of 69%. Further, the Activity entry in the experiment with Jurkat [2] was “Dose-dependent effect”; with Jurkat [3], 100%. The compound also displayed an inhibition at 10 µM in the experiment with Jurkat [4] of 52%. The result in the experiment on Jurkat [5] and in the experiment on Jurkat [6] was Active. This compound displayed an inhibition at 1 µM in the experiment on Jurkat [7] of 32%. In the experiment with Jurkat [1], `CCCCOC(=O)/C=C/c1ccccc1N1C(=O)c2ccccc2C1=O` had an inhibition at 100 µM of 52%. Same read-out and setting: with `COC(=O)/C=C/c1ccc(N2C(=O)c3ccccc3C2=O)cc1` the figure was 41%; with `CCCCO/C=C/c1cccc(N2C(=O)c3ccccc3C2=O)c1`, 49%.

For `COC(=O)/C=C/c1cccc2c1C(=O)N(C1CCC(=O)NC1=O)C2=O` (centres undefined), testing at 100 µM in the experiment on Jurkat [1] gave an inhibition of 40%. Same read-out and setting: for `CCCCOC(=O)/C=C/c1ccc2c(c1)C(=O)N(C1CCC(=O)NC1=O)C2=O` (centres undefined) the value was 42%. Same read-out and setting: for `O=C1c2ccccc2C(=O)N1c1cccc(C2CC=CO2)c1` (centres undefined) the value was 50%; for `O=C1CCC(N2C(=O)c3ccc(/C=C/C4CC=CO4)cc3C2=O)C(=O)N1` (centres undefined), 40%. For the compound `O=C1c2ccccc2C(=O)N1c1cccc(I)c1`, the inhibition at 100 µM in the experiment on Jurkat [1] stood at 37%. On the same count and under the same terms, for `O=C1CCCN1/C=C/c1cccc(N2C(=O)c3ccccc3C2=O)c1` the value was 36%; for `O=C1c2ccccc2C(=O)N1c1ccccc1I`, 40%; for `O=C1CCC(N2C(=O)c3cccc(C4CC=CO4)c3C2=O)C(=O)N1` (centres undefined), 50%. `O=C1CCC(N2C(=O)c3ccccc3C2=O)C(=O)N1` (centres undefined) [THALIDOMIDE] came in with an inhibition at 100 µM with Jurkat [1] of 38%. Besides, in the experiment on Jurkat [4], at 10 µM the inhibition was 35%. For the same compound, in the experiment with Jurkat [7], the inhibition at 1 µM came to 31%. In turn, `O=C1c2ccccc2C(=O)N1c1ccc(I)cc1` yielded an inhibition at 100 µM in the experiment on Jurkat [1] of 36%. On the same count and under the same terms, with `COC(=O)/C=C/c1cccc(N2C(=O)c3ccccc3C2=O)c1` the figure was 44%. The same measure, in the same setting: with `CCCCOC(=O)/C=C/c1cccc2c1C(=O)N(C1CCC(=O)NC1=O)C2=O` (centres undefined) the figure was 44%.
